Molecular target: human P2X3 receptor (Homo sapiens (Human), UniProt P56373)
Assay: Evaluation of human P2X3 receptor inhibitory activity (Test Example 1)
Assay type: cell-based
Details: C6BU-1 cell transfected with human P2X3 receptor gene, FLIPR 384
How it was run: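 FLIPR calcium read-out: signal taken as peak fluorescence after ATP addition divided by starting fluorescence, and IC50 calculated from it. Compound added 5 min before 150 nM ATP solution (pre-dispense stock) to Fluo-3-AM-loaded C6BU-1 cells stably transfected with human P2X3; HEPES buffer pH 7.5 with probenecid.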

Sequence of human P2X3 receptor (P56373 whole entry): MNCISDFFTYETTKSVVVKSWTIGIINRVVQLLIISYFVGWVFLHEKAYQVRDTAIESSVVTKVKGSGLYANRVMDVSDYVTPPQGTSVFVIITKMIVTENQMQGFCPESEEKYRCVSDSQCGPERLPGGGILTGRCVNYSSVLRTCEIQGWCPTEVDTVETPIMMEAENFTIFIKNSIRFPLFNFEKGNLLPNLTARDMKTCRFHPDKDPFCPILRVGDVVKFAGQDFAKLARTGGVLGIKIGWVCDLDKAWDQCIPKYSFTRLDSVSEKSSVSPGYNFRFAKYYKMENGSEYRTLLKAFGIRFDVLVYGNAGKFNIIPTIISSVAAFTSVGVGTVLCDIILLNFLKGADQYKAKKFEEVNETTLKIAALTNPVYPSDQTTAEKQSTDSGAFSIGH

Row | SMILES | IC50
1 | CCc1ccc(Oc2ccc(/N=c3\[nH]c(=O)n(C[C@H](C)C(=O)O)c(=O)n3Cc3ccc(C)cc3)cc2)nc1 [Compound I-275] | 4 nM
2 | NC(=O)CCn1c(=O)[nH]/c(=N\c2ccc(Oc3ccccn3)cc2)n(Cc2ccc(Cl)cc2)c1=O [Compound R-229] | 7 nM
3 | C[C@@H](Cn1c(=O)[nH]/c(=N\c2ccc(Oc3nc4ccccc4s3)cc2)n(Cc2ccc(Cl)cc2)c1=O)C(=O)O [Compound R-192] | 4 nM
4 | COC(=O)[C@@H](C)Cn1c(=O)[nH]/c(=N\c2ccc(Oc3ncccc3OC)cc2)n(Cc2ccc(Cl)cc2)c1=O [Compound I-153] | 13 nM
5 | COC(=O)[C@H](C)[C@H](C)n1c(=O)[nH]/c(=N\c2ccc(Oc3cccc(Cl)n3)cc2)n(Cc2ccc(Cl)cc2)c1=O [Compound I-013] | 58 nM
6 | CCn1c(=O)[nH]/c(=N\c2ccc(-c3ccc(C#N)cn3)cc2)n(Cc2ccc(Cl)cc2)c1=O [Compound R-005] | 608 nM
7 | O=C(O)Cn1c(=O)[nH]/c(=N\c2ccc(Oc3ccc(F)cn3)cc2)n(Cc2ccc(Cl)cc2)c1=O [Compound R-311] | 428 nM
8 | Cc1ccc(Cn2c(=O)n(C[C@H](C)C(=O)O)c(=O)[nH]/c2=N\c2ccc(Oc3ccc(C(F)(F)F)cn3)cc2)cc1 [Compound I-038] | 5 nM
9 | CCOC(=O)CCCn1c(=O)[nH]/c(=N\c2ccc(Oc3ccc(F)cn3)cc2)n(Cc2ccc(C)cc2)c1=O [Compound R-295] | 6 nM
10 | CCOC(=O)c1cnc(Oc2ccc(/N=c3\[nH]c(=O)n(CC)c(=O)n3Cc3ccc(Cl)cc3)cc2)cc1Cl [Compound R-053] | 52 nM
11 | Cc1ccc(Cn2c(=O)n([C@@H](C)[C@@H](C)C(=O)O)c(=O)[nH]/c2=N\c2ccc(Oc3ncc(C)s3)cc2)cc1 [Compound R-217] | 8 nM
12 | COC(=O)CCn1c(=O)[nH]/c(=N\c2ccc(Oc3ccccn3)c(C)c2)n(Cc2ccc(C)cc2)c1=O [Compound R-290] | 6 nM
13 | C[C@@H](Cn1c(=O)[nH]/c(=N\c2ccc(Oc3cncc(Cl)c3)cc2)n(Cc2ccc(Cl)cc2)c1=O)C(=O)O [Compound R-081] | 5 nM
14 | CCOC(=O)Cn1c(=O)[nH]/c(=N\c2ccc(Oc3ccc(Cl)cn3)cc2)n(Cc2ccc(Cl)cc2)c1=O [Compound R-310] | 4 nM
15 | COC(=O)[C@@H](C)Cn1c(=O)[nH]/c(=N\c2ccc(N3CCOCC3)c(C)c2)n(Cc2ccc(Cl)cc2)c1=O [Compound R-101] | 201 nM
16 | COC(=O)[C@@H](C)Cn1c(=O)[nH]/c(=N\c2ccc(Oc3ncccc3C#N)cc2)n(Cc2ccc(Cl)cc2)c1=O [Compound I-045] | 19 nM
17 | COC(=O)C(C)(C)Cn1c(=O)[nH]/c(=N\c2ccc(Oc3ccccn3)c(C)c2)n(Cc2ccc(Cl)cc2)c1=O [Compound I-225] | 14 nM
18 | O=C(O)C1(Cn2c(=O)[nH]/c(=N\c3ccc(Oc4ncccc4F)cc3)n(Cc3ccc(Cl)cc3)c2=O)COC1 [Compound I-050] | 28 nM
19 | Cc1cc(/N=c2\[nH]c(=O)n(C[C@H](C)C(=O)O)c(=O)n2Cc2ccc(Cl)cc2)ccc1Oc1cnccn1 [Compound R-130] | 9 nM
20 | COc1cccnc1Oc1ccc(/N=c2\[nH]c(=O)n(C[C@H](C)C(=O)O)c(=O)n2Cc2ccc(Cl)cc2)cc1 [Compound I-156] | 12 nM
21 | COC(=O)C(C)(C)Cn1c(=O)[nH]/c(=N\c2ccc(Oc3ccc(C(F)(F)F)nn3)cc2)n(Cc2ccc(Cl)cc2)c1=O [Compound R-029] | 7 nM
22 | COc1cncc(Oc2ccc(/N=c3\[nH]c(=O)n(CC(C)(C)C(=O)O)c(=O)n3Cc3ccc(Cl)cc3)cc2)c1 [Compound R-202] | 12 nM
23 | Cc1ccc(Cn2c(=O)n([C@@H](C)[C@@H](C)C(=O)O)c(=O)[nH]/c2=N\c2ccc(Oc3cccc(F)n3)cc2)cc1 [Compound I-106] | 6 nM

Row | SMILES | IC50
24 | Cc1cc(/N=c2\[nH]c(=O)n(CCC(=O)O)c(=O)n2Cc2ccc(Cl)cc2)ccc1Oc1ccccn1 [Compound R-283] | 28 nM
25 | COCc1cccc(Oc2ccc(/N=c3\[nH]c(=O)n(C[C@H](C)C(=O)O)c(=O)n3Cc3ccc(C)cc3)cc2)n1 [Compound I-256] | 29 nM
26 | COC(=O)[C@@H](C)Cn1c(=O)[nH]/c(=N\c2ccc(Oc3noc(C)n3)cc2)n(Cc2ccc(Cl)cc2)c1=O [Compound R-112] | 17 nM
27 | CC(C)(Cn1c(=O)[nH]/c(=N\c2ccc(Oc3cnc(Cl)cn3)cc2)n(Cc2ccc(Cl)cc2)c1=O)C(=O)O [Compound R-027] | 6 nM
28 | COC(=O)[C@H](C)[C@H](C)n1c(=O)[nH]/c(=N\c2ccc(Oc3ccc(C)cn3)cc2)n(Cc2ccc(C)cc2)c1=O [Compound I-109] | 6 nM
29 | CC(=O)c1ccc(Oc2ccc(/N=c3\[nH]c(=O)n(C[C@H](C)C(=O)O)c(=O)n3Cc3ccc(Cl)cc3)cc2)nc1 [Compound I-259] | 5 nM
30 | COC(=O)[C@H](C)[C@H](C)n1c(=O)[nH]/c(=N\c2ccc(Oc3ccc(C)cn3)cc2)n(Cc2ccc(Cl)cc2)c1=O [Compound I-073] | 15 nM
31 | Cc1ccc(Cn2c(=O)n([C@@H](C)[C@@H](C)C(=O)O)c(=O)[nH]/c2=N\c2ccc(Oc3ccc(Cl)cn3)cc2)cc1 [Compound I-123] | 5 nM
32 | Cc1ccc(Cn2c(=O)n(CC(C)(C)C(=O)O)c(=O)[nH]/c2=N\c2ccc(Oc3ccccn3)cc2)cc1 [Compound I-155] | 8 nM
33 | O=C(O)CCn1c(=O)[nH]/c(=N\c2ccc(Oc3ccc(Cl)cn3)cc2)n(Cc2ccc(Cl)cc2)c1=O [Compound R-284] | 5 nM
34 | COC(=O)[C@@H](Cn1c(=O)[nH]/c(=N\c2ccc(Oc3ccccn3)cc2)n(Cc2ccc(Cl)cc2)c1=O)OC [Compound I-203] | 3 nM
35 | COC(=O)[C@@H](C)Cn1c(=O)[nH]/c(=N\c2ccc(Oc3ccc(OC(F)F)cn3)cc2)n(Cc2ccc(C)cc2)c1=O [Compound I-132] | 8 nM
36 | C[C@@H](C(=O)O)[C@H](C)n1c(=O)[nH]/c(=N\c2ccc(Oc3cc(C#N)ccn3)cc2)n(Cc2ccc(Cl)cc2)c1=O [Compound I-134] | 7 nM
37 | COC(=O)C(C)(C)Cn1c(=O)[nH]/c(=N\c2ccc(N3CCCCC3)c(F)c2)n(Cc2ccc(Cl)cc2)c1=O [Compound R-141] | 47 nM
38 | COC(=O)[C@@H](C)Cn1c(=O)[nH]/c(=N\c2ccc(Oc3cc(F)nc(F)c3)cc2)n(Cc2ccc(Cl)cc2)c1=O [Compound R-040] | 7 nM
39 | COc1nc(=O)n(Cc2ccc(Cl)cc2)/c(=N/c2ccc(Oc3cccc(C#N)n3)cc2)[nH]1 [Compound R-232] | 61 nM
40 | COC(=O)[C@@H](C)Cn1c(=O)[nH]/c(=N\c2ccc(Oc3ccccn3)c(F)c2)n(Cc2ccc(Cl)cc2)c1=O [Compound I-205] | 12 nM
41 | Cc1ccc(Cn2c(=O)n([C@H]3C[C@@H](C(=O)O)C3)c(=O)[nH]/c2=N\c2ccc(Oc3ccc(F)cn3)cc2)cc1 [Compound I-183] | 12 nM
42 | CC(C)Oc1ccc(/N=c2\[nH]c(=O)n([C@H]3C[C@@H](C(=O)O)C3)c(=O)n2Cc2ccc(Cl)cc2)cc1Cl [Compound R-022] | 12 nM
43 | CCc1ccc(Oc2ccc(/N=c3\[nH]c(=O)n(C[C@H](C)C(=O)OC)c(=O)n3Cc3ccc(Cl)cc3)cc2)nc1 [Compound I-251] | 8 nM
44 | COC(=O)[C@@H](C)Cn1c(=O)[nH]/c(=N\c2ccc(Oc3cncc(Cl)c3)cc2)n(Cc2ccc(Cl)cc2)c1=O [Compound R-079] | 11 nM
45 | C[C@@H](C(=O)O)[C@H](C)n1c(=O)[nH]/c(=N\c2ccc(Oc3cccc(Cl)n3)cc2)n(Cc2ccc(Cl)cc2)c1=O [Compound I-016] | 8 nM
